Structures can show the parent of a compound that is named as a salt. Where two headings read alike, the source gives them in different places.
Experiments:
[1] = target: GST-Syk Full Protein (human) (Homo sapiens, UniProt P43405); assay: Syk kinase inhibition test (HTRF method); assay type: biochemical
Summary of the method: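 Human GST-Syk full-length (6.4 nM) phosphorylated biotin-EDPDYEWPSA-NH2 (250 nM) with 100 μM ATP in HEPES pH 7.0/MgCl2 buffer, 2% DMSO, 30 min at room temperature. EDTA stop, then HTRF detection (streptavidin-XL665, Eu anti-phosphotyrosine) after 1 h; 665/620 ratio read.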

[2] = system: cultured human mast cells; assay: Degranulation inhibition test using cultured human mast cells (IgE cross-linking, β-Hexosaminidase release); assay type: cell-based; conditions: Mast cell, cultured human mast cells, read-out: human degranulation ave. IC50
Summary of the method: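 CD34+ cord-blood cells cultured ≥8 weeks with SCF/IL-6/IL-3; FcεRI primed 5 days with rhIL-4 (1 ng/mL) and hIgE (0.5 μg/mL). Compound (0.1% DMSO) preincubated 10 min at 37 °C, then anti-IgE (final 10 μg/mL) 30 min; released β-hexosaminidase read at 405 nm versus total lysate, IC50 (M).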

[3] = HTRF, 100 μM ATP, 30 min room temperature, average, read-out: sykHTRF ave IC50
[4] = anti-hIgE stimulation, β-Hexosaminidase index, average
[5] = Tables 2-x, thiophene compounds B, read-out: sykHTRK ave IC50
[6] = Tables 2-x, thiophene compounds B
[7] = Tables 1-x, compounds A, read-out: sykHTRF ave IC50

| IC50 [1, 3] [nM] | IC50 [2, 4] [nM] | IC50 [1, 7] [nM] | IC50 ([2]; Tables 1-x, compounds A) [nM] | Compound | also measured |
| --- | --- | --- | --- | --- | --- |
| 100 to 1000 | 100 to 1000 |  |  | Cc1ccnc(Nc2cccc(-c3cnc(CC4CCC(C(=O)N5CCC(O)CC5)CC4)s3)n2)c1 (stereo not drawn) [Compound A-269] |  |
| < 100 | < 100 |  |  | COc1ccnc(Nc2cccc(-c3cnc([C@H](C)O)s3)n2)c1 [Compound A-320, (S)-1-{5-[6-(4-methoxypyridin-2-ylamino)pyridin-2-yl]thiazol-2-yl}ethanol] |  |
| 100 to 1000 | > 1000 |  |  | Cc1ccnc(Nc2cccc(-c3cnc(C(=O)NC(C)(C)CO)s3)n2)c1 [Compound A-34] |  |
|  |  | < 100 | 100 to 1000 | CC1(c2ccnc(Nc3cccc(-c4cnc(N5CC[C@@H](O)C5)s4)n3)c2)OCCO1 [Compound A-548, (R)-1-(5-{6-[4-(2-methyl-[1,3]dioxolan-2-yl)pyridin-2-ylamino]pyridin-2-yl}thiazol-2-yl)pyrrolidin-3-ol] |  |
|  |  | < 100 | > 1000 | CC(=O)c1ccnc(Nc2cccc(-c3cnc(N4CCC[C@H]4C(=O)O)s3)n2)c1 [Compound A-564, (S)-1-{5-[6-(4-acetylpyridin-2-ylamino)pyridin-2-yl]thiazol-2-yl}pyrrolidine-2-carboxylic acid dihydrochloride] |  |
| 100 to 1000 | 100 to 1000 |  |  | Cc1ccnc(Nc2cccc(-c3cnc(CN4CCC(NS(C)(=O)=O)CC4)s3)n2)c1 [Compound A-236] |  |
| < 100 | 100 to 1000 |  |  | Cc1ccnc(Nc2cccc(-c3cnc(CCc4ccc(O)cc4)s3)n2)c1 [Compound A-135, 4-(2-{5-[6-(4-methylpyridin-2-ylamino)pyridin-2-yl]thiazol-2-yl}ethyl)phenol] |  |
|  |  | 100 to 1000 | > 1000 | Cc1ccnc(Nc2cccc(-c3cnc(N4CCC(C(=O)N5CCC(O)CC5)CC4)s3)n2)c1 [Compound A-420] |  |
| 100 to 1000 | 100 to 1000 |  |  | Cc1ccnc(Nc2cccc(-c3cnc(N4CCN(C)C(=O)C4)s3)n2)c1 [Compound A-1, 1-methyl-4-{5-[6-(4-methylpyridin-2-ylamino)pyridin-2-yl]thiazol-2-yl}piperazin-2-one] |  |
| < 100 | 100 to 1000 |  |  | Cc1ccnc(Nc2cccc(-c3cnc([C@H]4CC[C@H](C(=O)NCCN5CCOCC5)CC4)s3)n2)c1 [Compound A-268, N-(2-morpholin-4-ylethyl)-trans-4-{5-[6-(4-methylpyridin-2-ylamino)pyridin-2-yl]thiazol-2-yl}cyclohexanecarboxamide] |  |
|  |  | < 100 | 100 to 1000 | CC(=O)N1CCC(N(CCO)c2ncc(-c3cccc(Nc4cc(C)ccn4)n3)s2)CC1 [Compound A-525, 1-[4-(N-(2-hydroxyethyl)-N-{5-[6-(4-methylpyridin-2-ylamino)pyridin-2-yl]thiazol-2-yl}amino)piperidin-1-yl]ethanone] |  |
|  |  | < 100 | 100 to 1000 | CC(=O)N1CCC(N(C)c2ncc(-c3cccc(Nc4cc(C)ccn4)n3)s2)CC1 [Compound A-458, 1-[4-(N-methyl-N-{5-[6-(4-methylpyridin-2-ylamino)pyridin-2-yl]thiazol-2-yl}amino)piperidin-1-yl]ethanone] |  |
| 100 to 1000 | > 1000 |  |  | Cc1ccnc(Nc2cccc(-c3cnc(C4CCN(C)CC4)s3)n2)c1 [Compound A-183] |  |

The remaining lines, values behind:

| Compound | IC50 [1, 3] [nM] | IC50 [2, 4] [nM] | IC50 [1, 7] [nM] | IC50 ([2]; Tables 1-x, compounds A) [nM] | also measured |
| --- | --- | --- | --- | --- | --- |
| COC(=O)CCCCc1ncc(-c2cccc(Nc3cc(C)ccn3)n2)s1 [Compound A-68] | 100 to 1000 | > 1000 |  |  |  |
| Cc1ccnc(Nc2cccc(-c3ccc(-c4cc(C)no4)s3)n2)c1 [Compound B-66] |  |  |  |  | IC50 [1, 5]: 100 to 1000 nM; IC50 [2, 6]: > 1000 nM |
| CC(=O)N1CCN(c2ncc(-c3cccc(Nc4cc(C)ccn4)n3)s2)CC1 [Compound A-419, 1-(4-{5-[6-(4-methylpyridin-2-ylamino)pyridin-2-yl]thiazol-2-yl}piperazin-1-yl)ethanone] |  |  | < 100 | 100 to 1000 |  |
| Cc1ccnc(Nc2cccc(-c3cnc(C(=O)CCC(=O)O)s3)n2)c1 [Compound A-124] | 100 to 1000 | > 1000 |  |  |  |
| Cc1ccnc(Nc2cccc(-c3ccc(C(C)O)s3)n2)c1 (stereo not drawn) [Compound B-3, 1-{5-[6-(4-methylpyridin-2-ylamino)pyridin-2-yl]thiophen-2-yl}ethanol] |  |  |  |  | IC50 [1, 5]: 100 to 1000 nM; IC50 [2, 6]: 100 to 1000 nM |
| CC(=O)NCCCCCc1ncc(-c2cccc(Nc3cc(C)ccn3)n2)s1 [Compound A-129] | 100 to 1000 | > 1000 |  |  |  |
| Cc1ccnc(Nc2cccc(-c3cnc(C(=O)N4CCCC(O)C4)s3)n2)c1 (stereo not drawn) [Compound A-61] | 100 to 1000 | 100 to 1000 |  |  |  |
| Cc1ccnc(Nc2cccc(-c3cnc([C@H]4CC[C@H](C(=O)N(CCO)CCO)CC4)s3)n2)c1 [Compound A-302] | 100 to 1000 | 100 to 1000 |  |  |  |
| CC(=O)N1CCN(C(=O)c2ccc(-c3cccc(Nc4cc(C)ccn4)n3)s2)CC1 [Compound B-85] |  |  |  |  | IC50 [1, 5]: 100 to 1000 nM; IC50 [2, 6]: 100 to 1000 nM |
| CC(O)c1ccnc(Nc2cccc(-c3cnc(N4CC[C@@H](O)C4)s3)n2)c1 (stereo partly drawn) [Compound A-554, (R)-1-(5-{6-[4-(1-hydroxyethyl)pyridin-2-ylamino]pyridin-2-yl}thiazol-2-yl)pyrrolidin-3-ol] |  |  | < 100 | 100 to 1000 |  |
| CNC(=O)CO[C@@H]1CCN(c2ncc(-c3cccc(Nc4cc(C)ccn4)n3)s2)C1 [Compound A-516, N-methyl-2-((R)-1-{5-[6-(4-methylpyridin-2-ylamino)pyridin-2-yl]thiazol-2-yl}pyrrolidin-3-yloxy)acetamide] |  |  | < 100 | 100 to 1000 |  |
| Cc1ccnc(Nc2cccc(-c3cnc(N4CCSCC4)s3)n2)c1 [Compound A-418] |  |  | 100 to 1000 | 100 to 1000 |  |
| Cc1ccnc(Nc2cccc(-c3cnc([C@H](C)NC(=O)Cc4ccc(O)cc4)s3)n2)c1 [Compound A-352] | 100 to 1000 | 100 to 1000 |  |  |  |
| CC(=O)NC[C@H]1CC[C@H](c2ncc(-c3cccc(Nc4cc(C)ccn4)n3)s2)CC1 [Compound A-228, N-(trans-4-{5-[6-(4-methylpyridin-2-ylamino)pyridin-2-yl]thiazol-2-yl}cyclohexylmethyl)acetamide] | < 100 | 100 to 1000 |  |  |  |
| Cc1ccnc(Nc2cccc(-c3cnc(CCc4ccc(C(=O)N5CCC(O)CC5)cc4)s3)n2)c1 [Compound A-233] | 100 to 1000 | 100 to 1000 |  |  |  |
| Cc1ccnc(Nc2cccc(-c3cnc(N(C)Cc4ccc(O)cc4)s3)n2)c1 [Compound A-471, 4-[(N-methyl-N-{5-[6-(4-methylpyridin-2-ylamino)pyridin-2-yl]thiazol-2-yl}amino)methyl]phenol] |  |  | < 100 | 100 to 1000 |  |
| Cc1ccnc(Nc2cccc(-c3cnc(C4CCC(O)CC4)s3)n2)c1 (stereo not drawn) [Compound A-73, 4-{5-[6-(4-methylpyridin-2-ylamino)pyridin-2-yl]thiazol-2-yl}cyclohexanol] | < 100 | 100 to 1000 |  |  |  |
| Cc1ccnc(Nc2cccc(-c3cnc(N(C)C4CCNCC4)s3)n2)c1 [Compound A-452, N-methyl-N-{5-[6-(4-methylpyridin-2-ylamino)pyridin-2-yl]thiazol-2-yl}-N-piperidin-4-ylamine] |  |  | < 100 | > 1000 |  |
| CO/N=C(\N)c1ccc(-c2cccc(Nc3cc(C)ccn3)n2)s1 [Compound B-69] |  |  |  |  | IC50 [1, 5]: 100 to 1000 nM; IC50 [2, 6]: 100 to 1000 nM |
| CCOC(=O)c1ncc(-c2cccc(Nc3cc(C)ccn3)n2)s1 [Compound A-28, 5-[6-(4-methylpyridin-2-ylamino)pyridin-2-yl]thiazole-2-carboxylic acid ethyl ester] | < 100 | 100 to 1000 |  |  |  |
